{Sucrose} = sucrose through a 1,5-bis(succinimidooxycarbonyloxy)pentane crosslinker
How the values were obtained:
Exonuclease-1 = target: T1, Exonuclease-1 (Escherichia coli, UniProt P04995); type: in vitro ADME; conditions: 0.5 or 1.0 unit Exonuclease-1, 30 minutes at 37° C., gel autoradiography (FIG. 3)
T1 sequence (P04995 1-475): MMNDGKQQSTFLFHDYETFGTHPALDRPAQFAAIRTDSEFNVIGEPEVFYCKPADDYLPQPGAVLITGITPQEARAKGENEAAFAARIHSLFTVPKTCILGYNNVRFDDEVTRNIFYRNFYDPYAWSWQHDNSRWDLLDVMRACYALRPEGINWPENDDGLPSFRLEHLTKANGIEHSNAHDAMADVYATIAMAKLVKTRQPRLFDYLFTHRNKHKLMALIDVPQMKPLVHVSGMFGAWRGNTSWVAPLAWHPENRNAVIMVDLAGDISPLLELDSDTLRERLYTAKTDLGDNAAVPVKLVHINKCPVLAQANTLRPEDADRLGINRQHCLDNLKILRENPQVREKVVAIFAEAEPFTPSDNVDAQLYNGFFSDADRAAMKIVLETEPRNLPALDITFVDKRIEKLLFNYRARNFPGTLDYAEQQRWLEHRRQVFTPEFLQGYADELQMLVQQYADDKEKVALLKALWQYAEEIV
Description: (§1) Electrophoresis was performed using 20% polyacrylamide gels containing […], 90 mM Tris-borate (pH 8.3), 2 mM EDTA, 0.02% ammonium persulfate, and 15 μl tetraethylediamine (TEMED). Samples were dissolved in gel-loading buffer (10 M urea, 1.5 mM EDTA, 0.05% xylene cyanol, and 0.05% bromophenol blue) and heated at 90° C. for 1 minute and chilled before application to polyacrylamide gels.
Radiolabeled oligonucleotide (30,000 CPM) was incubated with either 0.5 or 1.0 unit of Exonuclease-1 in 67 mM glycine (pH 9.5), 10 mM 2-mercaptoethanol, and 6.7 mM MgCl2 in 20 μl for 30 minutes at 37° C. After incubation, 5 μl of gel-loading buffer were added. All reactions were analyzed by polyacrylamide gel electrophoresis followed by autoradiography of the wet gel at −70° C.

[1] = system: RNA complementary to the oligonucleotide; assay: RNase H assay (RNA-DNA heteroduplex formation); type: biochemical; conditions: Escherichia coli RNase H, 10 or 30 minutes, room temperature (FIG. 6)
Description: Radiolabeled oligonucleotide (30,000 CPM) was annealed to complementary RNA by incubation in 20 mM Tris-HCl (pH 7.5), 0.1 M KCl, 10 mM MgCl2, and 0.1 mM ATP in 10 μl for 5 minutes at 65° C. followed by slow cooling to room temperature. One unit of Escherichia coli RNase H was added and incubation at room temperature was continued for either 10 minutes or 30 minutes. After incubation, 5 μl of gel-loading buffer were added, and all samples were analyzed by polyacrylamide gel electrophoresis followed by autoradiography of the wet gel at −70° C.
Unconjugated and sucrose-conjugated phosphodiester and phosphorothioate oligonucleotides were tested for their ability to form stable RNA-DNA heteroduplexes by determining RNA susceptibility to degradation by RNase H. RNA complementary to the oligonucleotide was labeled at the 5′-end using γ-^32P-ATP and T4 polynucleotide kinase. Radiolabeled RNA was hybridized to either unconjugated phosphodiester, sucrose-conjugated phosphodiester, unconjugated phosphorothioate, or sucrose-conjugated phosphorothioate oligonucleotide. Heteroduplex formation was assayed by incubation with RNase H for either 10 minutes or 30 minutes.

[2] = Nuclease degradation assay in heat-inactivated 10% fetal bovine serum; type: in vitro ADME; conditions: phosphodiester oligonucleotides, up to 24 hours at 37° C. (FIG. 4)
Description: as §1
Radiolabeled oligonucleotide (30,000 CPM) was incubated in RPMI-1640 medium (GIBCO-BRL, Grand Island, N.Y.) containing 10% heat-inactivated fetal bovine serum at 37° C. Samples were removed at various times, mixed with gel-loading buffer, and frozen at −20 C. Samples were analyzed by polyacrylamide gel electrophoresis followed by autoradiography of the wet gel at −70° C.

**Q.** For “sucrose-conjugated phosphodiester oligonucleotide: 19-mer phosphodiester oligonucleotide (Sequence ID No. 1) coupled at 3′-end to sucrose via crosslinker 1,5-bis(succinimidooxycarbonyloxy)pentane (GCTTCTGTGCTCATGGTCT; all phosphodiester, 3' {Sucrose}, sugars by position and methylation of C not given here; further chemistry not fully specified)”, which “degradation by Exonuclease-1” value (Exonuclease-1) is on record?
**A.** only negligible degradation

**Q.** What about the “RNA susceptibility to degradation by RNase H (stable RNA-DNA heteroduplex formation)” value [1] of the same substance?
**A.** degraded by RNase H

**Q.** And the “degradation in heat-inactivated 10% fetal bovine serum” value [2]?
**A.** relatively resistant to degradation

**Q.** Which results are given for “unconjugated phosphodiester oligonucleotide: phosphodiester oligonucleotide, 19 nucleotides in length, sequence of Sequence ID No. 1, unconjugated control (GCTTCTGTGCTCATGGTCT; all phosphodiester, sugars by position and methylation of C not given here)”?
**A.** degradation by Exonuclease-1 (Exonuclease-1): degraded nearly completely; RNA susceptibility to degradation by RNase H (stable RNA-DNA heteroduplex formation) [1]: degraded by RNase H; degradation in heat-inactivated 10% fetal bovine serum [2]: highly susceptible to degradation

Reference: patent US6444806B1, “Conjugates and methods of forming conjugates of oligonucleotides and carbohydrates” (Hisamitsu Pharmaceutical Co., Inc., priority 1996, dated 2002)
